Assay results: ChEMBL document CHEMBL1201862, “PubChem BioAssay data set” (2004)
Active and inactive are the calls of the source.

What was measured:
[1] = target: T1, Ubiquitin-conjugating enzyme E2 N (Homo sapiens, UniProt P61088); type: functional;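 note: Dose-response confirmation in a TR-FRET assay detecting UBC13-driven polyubiquitin chain formation, inhibition measured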
T1 sequence (P61088 whole entry): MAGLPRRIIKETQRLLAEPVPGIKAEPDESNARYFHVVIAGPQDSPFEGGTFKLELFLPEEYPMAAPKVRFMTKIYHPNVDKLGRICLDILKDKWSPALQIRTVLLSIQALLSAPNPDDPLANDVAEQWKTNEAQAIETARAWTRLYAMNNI

[2] = target: T2, Microphthalmia-associated transcription factor (Homo sapiens, UniProt O75030); test: TRPM1 promoter luciferase signal decrease, dose response, MITF inhibitor project, cell-based, SK-MEL-5, cherry-picked, set 3 (AID 493073); type: functional
T2 sequence (O75030 whole entry): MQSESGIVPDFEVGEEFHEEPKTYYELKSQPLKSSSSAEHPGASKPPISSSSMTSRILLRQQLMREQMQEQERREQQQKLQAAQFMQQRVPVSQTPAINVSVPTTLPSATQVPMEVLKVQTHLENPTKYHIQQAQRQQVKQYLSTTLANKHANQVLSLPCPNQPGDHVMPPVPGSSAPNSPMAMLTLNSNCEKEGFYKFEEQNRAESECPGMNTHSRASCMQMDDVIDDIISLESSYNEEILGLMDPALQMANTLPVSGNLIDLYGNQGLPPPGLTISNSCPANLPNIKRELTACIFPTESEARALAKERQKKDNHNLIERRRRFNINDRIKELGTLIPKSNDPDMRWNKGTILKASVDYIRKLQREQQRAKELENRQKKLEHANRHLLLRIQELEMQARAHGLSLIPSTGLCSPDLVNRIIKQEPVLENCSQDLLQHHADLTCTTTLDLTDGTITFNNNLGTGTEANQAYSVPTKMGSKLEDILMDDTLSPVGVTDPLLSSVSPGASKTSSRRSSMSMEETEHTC

A-375 [3] = test: A375 melanoma cell viability reduction, dose response, counter-screen for MITF modulator project, cherry-pick samples, set 2 (AID 540335); type: functional, cell-based; settings: Homo sapiens
[4] = cytotoxicity in HEK-293T cells, dose response, cytotoxicity control for BCR NF-kB inhibitor project, luminescence, B-cell screen hits (AID 489021); type: functional, cell-based;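 note: HEK-293T cells carrying an NF-kB luciferase reporter; cells exposed to compound for about 14 hours before viability readout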
Cytochrome P450 2C19 = Cytochrome P450 2C19 (Homo sapiens, UniProt P33261); test: Cytochrome panel assay with activity outcomes. Panel member name: p450-cyp2c19 Compounds with AC50 equal or less than 10 uM are considered active; type: functional; settings: read-out: AC50
Cytochrome P450 2C19, sequence (P33261 whole entry): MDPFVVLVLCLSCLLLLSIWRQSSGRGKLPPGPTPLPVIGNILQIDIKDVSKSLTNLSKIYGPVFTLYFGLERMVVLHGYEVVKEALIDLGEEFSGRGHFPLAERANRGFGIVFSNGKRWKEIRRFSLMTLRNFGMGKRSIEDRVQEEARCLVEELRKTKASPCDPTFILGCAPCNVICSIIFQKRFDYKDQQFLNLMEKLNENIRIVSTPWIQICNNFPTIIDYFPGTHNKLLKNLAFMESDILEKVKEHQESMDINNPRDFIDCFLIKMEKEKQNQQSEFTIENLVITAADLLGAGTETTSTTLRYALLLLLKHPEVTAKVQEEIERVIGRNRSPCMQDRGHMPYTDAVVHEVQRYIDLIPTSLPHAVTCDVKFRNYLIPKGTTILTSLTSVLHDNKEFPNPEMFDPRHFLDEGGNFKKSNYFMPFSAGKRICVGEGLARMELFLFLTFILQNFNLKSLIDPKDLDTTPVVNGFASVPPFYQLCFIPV

HEK293 [5] = test: cytotoxicity in HEK293T NF-kB-Luc cells, SAR follow-up, cytotoxicity control for NF-kB activator project, cell-based, resazurin fluorescence (AID 493251); type: functional; settings: Homo sapiens
Jurkat = test: SAR Analysis of small molecule inhibitors of T-cell specific antigen receptor-induced NF-kB activation in a Jurkat cell line using a luminescence assay - Set 2. [Related pubchem assays (depositor defined):AID435003, AID435012, AID465]; type: functional, cell-based; settings: Homo sapiens
HEK293 [6] = test: SAR Analysis of small molecule inhibitors of T-cell specific antigen receptor-induced NF-kB activation in a HEK-293T cell line using a luminescence assay - Set 2. [Related pubchem assays (depositor defined):AID435003, AID435012, AID489026]; type: functional, cell-based; settings: Homo sapiens
[7] = target: T3, RNA-binding protein pos-1 (Caenorhabditis elegans, UniProt G5EF15); test: inhibitors of POS-1/mex-3 RNA binding, dose response, biochemical, fluorescence polarization (AID 1964);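 note: purified POS-1 fused to maltose binding protein made in E. coli; potency of compounds blocking POS-1 binding to fluorescent RNA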
T3 sequence (G5EF15 whole entry): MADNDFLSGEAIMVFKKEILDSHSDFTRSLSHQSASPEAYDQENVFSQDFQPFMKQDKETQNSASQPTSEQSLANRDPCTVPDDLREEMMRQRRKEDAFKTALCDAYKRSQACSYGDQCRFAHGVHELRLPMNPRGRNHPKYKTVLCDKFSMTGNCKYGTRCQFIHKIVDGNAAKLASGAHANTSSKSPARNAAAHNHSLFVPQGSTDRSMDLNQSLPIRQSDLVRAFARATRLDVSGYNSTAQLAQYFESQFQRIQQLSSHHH

[8] = target: T4, Zinc finger protein mex-5 (Caenorhabditis elegans, UniProt Q9XUB2); test: MEX-5/TCR-2 RNA interaction inhibitors, dose response, biochemical, C. elegans, fluorescence polarization (AID 1960)
T4 sequence (Q9XUB2 whole entry): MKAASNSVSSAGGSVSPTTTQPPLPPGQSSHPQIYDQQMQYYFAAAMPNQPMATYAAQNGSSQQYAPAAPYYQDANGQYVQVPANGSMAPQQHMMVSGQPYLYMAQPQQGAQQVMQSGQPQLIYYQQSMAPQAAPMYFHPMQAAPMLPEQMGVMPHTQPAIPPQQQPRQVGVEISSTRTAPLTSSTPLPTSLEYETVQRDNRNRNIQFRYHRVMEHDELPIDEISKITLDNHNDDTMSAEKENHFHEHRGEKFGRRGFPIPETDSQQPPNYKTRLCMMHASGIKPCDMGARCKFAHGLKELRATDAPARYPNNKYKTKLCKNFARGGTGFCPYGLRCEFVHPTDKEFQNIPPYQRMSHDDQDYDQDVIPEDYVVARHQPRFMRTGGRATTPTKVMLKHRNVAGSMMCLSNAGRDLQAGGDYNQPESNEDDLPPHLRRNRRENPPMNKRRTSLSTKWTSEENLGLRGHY

[9] = growth suppression of PTEN-null colon cells, dose response, cell-based, HCT116 PTEN knockout (AID 1047); type: functional;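 note: HCT116 colon tumor cells with PTEN knocked out; cells exposed to compound for 60 hours before readout; potency for loss of cell viability measured by luminescence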
[10] = growth suppression of beta-catenin-knockout colon cells, dose response, cell-based, HCT116, human colon tumor (AID 1045); type: functional;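 note: HCT116 colon tumor cells with beta catenin knocked out; cells exposed to compound for 60 hours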
X-box-binding protein 1 = X-box-binding protein 1 (Homo sapiens, UniProt P17861); type: functional, Cricetulus griseus;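 note: confirmatory dose-response counter-screen serving a CHOP assay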
X-box-binding protein 1, sequence (P17861 whole entry): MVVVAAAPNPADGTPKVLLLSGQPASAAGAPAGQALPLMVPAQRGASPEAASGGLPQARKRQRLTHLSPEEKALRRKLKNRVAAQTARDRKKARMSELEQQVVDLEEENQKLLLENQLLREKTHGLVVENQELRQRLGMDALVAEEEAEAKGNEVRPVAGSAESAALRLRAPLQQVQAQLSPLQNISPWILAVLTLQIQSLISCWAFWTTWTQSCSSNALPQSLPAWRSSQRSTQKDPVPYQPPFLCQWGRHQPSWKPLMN

[11] = target: T5, Endoribonuclease toxin MazF (Escherichia coli K-12, UniProt P0AE70); test: MazF toxin RNase activators, dose response, biochemical, fluorescence, single-stranded RNA substrate, uHTS hits (AID 588481); type: functional
T5 sequence (P0AE70 whole entry): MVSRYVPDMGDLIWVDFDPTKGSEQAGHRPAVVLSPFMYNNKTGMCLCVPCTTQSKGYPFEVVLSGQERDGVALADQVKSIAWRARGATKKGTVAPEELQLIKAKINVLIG

A-375 [12] = test: MITF: Counter assay: A375 proliferation Measured in Cell-Based System Using Plate Reader - 2084-03_Inhibitor_Dose_DryPowder_Activity. [Related pubchem assays (depositor defined):AID488944]; type: functional; settings: Homo sapiens
[13] = target: T5, Endoribonuclease toxin MazF; test: fluorescent RNA oligo signal without MazF, dose response, counter-screen for MazEF activator project, biochemical, fluorescence, single-stranded RNase substrate (AID 588502); type: functional

For Cc1cccc(/C=C2/Sc3ccc(C(=O)NCCN4CCCC4)cc3NC2=O)c1, the IC50 [1] was > 20 µM (inactive), the AC50 [2] was 18.4 µM (active) and the AC50 (A-375 [3]) was 21.1 µM (active).

In the case of CN(C)C(=O)CCc1nc(-c2ccc(C(C)(C)C)cc2)no1, the IC50 [4] is reported as > 80 µM (inactive), the AC50 (Cytochrome P450 2C19) is reported as 22.4 µM (inconclusive) and the IC50 (HEK293 [5]) is reported as > 80 µM (inactive). The IC50 (Jurkat) was > 79 µM (inactive) and the IC50 (HEK293 [6]) was 48.5 µM (inactive).

In the case of Br.N=c1n(CC(=O)c2ccc([N+](=O)[O-])cc2)c2ccccc2n1Cc1ccc(Cl)cc1, the EC50 [7] is reported as 125 µM (active), the EC50 [8] is reported as > 300 µM (not active) and the EC50 [9] is reported as 5.38 µM (active). The EC50 [10] was 5.28 µM (active), the “Absolute IC50 (XBP1)” value (X-box-binding protein 1) was 10 µM and the EC50 [11] was > 99 µM (inactive). The AC50 (A-375 [12]) was 22.2 µM (active) and the EC50 [13] was 1.93 µM (active).
